Reference: patent US5574026A, “Methods for inhibiting angiogenesis proliferation of endothelial or tumor cells and tumor growth” (American Cyanamid Company, priority 1994, dated 1996)
≈ marks a conversion by molar mass, not a printed value. Structures can show the parent of a compound that is named as a salt. Where two headings read alike, the source gives them in different places.

What was measured:
Format in all cases: cell-based
A2780S = assay: Antiproliferative activity in human tumor cell lines, PROTOCOL 1 and PROTOCOL 2; conditions: ovarian tumor cell line A2780S, 48 hours, read-out: IC50
Protocol: (§1) The assays are identified as follows: PROTOCOLS 1, 2, and 3 are described in greater detail hereinbelow. In general, according to PROTOCOLS 1 and 2, the target ABAE and/or Human Tumor cells are exposed to the compounds of Formula I for 48 hours. PROTOCOL 3 exposes ABAE cells to the compounds for 4 days. A detailed description of the Protocols is as follows: Antiproliferative Activity in Human Tumor Cell Lines The antiproliferative activity of the compounds of Formula I of the present invention is evaluated in a panel comprised of human tumor cell lines. […] Cultures are renewed after 20 passages with cells from a fresh stock of batch-frozen early passage cells. Cell lines are routinely checked for mycoplasma contamination (Genprobe). In a laminar flow hood, cells (1-5×10^4) are plated into 96-well microtiter plates in a volume of 0.1 ml/well with a bulk microtiter dispenser (Denley). […] Compounds are added using a Tomtec dispenser which simultaneously dispenses from one 96-well plate, containing the drug dilutions, to the plates containing the cells. After two days of continuous drug exposure, 50% cold trichloroacetic acid (TCA) is added to 10% final concentration to fix the cells, and after 60 minutes at 4° C., the TCA is aspirated and the plates are washed 5 times with deionized water using a microtiter plate washer. […] A 0.4% solution of the dye, sulforhodamine B, in glacial acetic acid is added to the plates, and the plates are washed 5 times with 1% glacial acetic acid using the automatic plate washed. The bound stain is solubilized with 0.1 ml of 10 mMTris base. The optical densities are read from an automatic spectrophotometric plate reader (Dynatech) directly to a main frame computer (VAX 8600). Positive controls, that include standard chemotherapeutic drugs (i.e., adriamycin, cisplatin, etc.), are included in every experiment. Background optical density measurements (complete media--cells, and complete media+drug-cells) are automatically subtracted from the appropriate control and test wells. Mean values and standard errors are determined from duplicate wells. A measure is also made of the optical density at time when the drugs are added. The number of cells after treatment (P), as % of control, is calculated for every concentration of drug, as follows: [formula] wherein: T is optical density measurement for treated cells after 48 hours; C is optical density measurement for untreated cells after 48 hours; Co is optical density measurement for cells at the time of drug addition. IC50 of Growth inhibition is calculated from the sets of P values using the RS-1 data package (BBN Software). Antiproliferative Activity in Human Tumor and Adult Bovine Aortic Endothelial Cell Lines (ABAE) The antiproliferative activity of the compounds of Formula I is evaluated in a panel comprised of human tumor cell lines as listed in Protocol 1 as well as an adult bovine aortic endothelial cell line (ABAE). This assay is a modification of PROTOCOL 1.

HTB 161 = assay: as above; conditions: HTB 161, 48 hours
Protocol: as §1

MIP = assay: as above; conditions: colon tumor cell line MIP, 48 hours
Protocol: (§2) The antiproliferative activity of the compounds of Formula I in an Adult Bovine Aortic Endothelial (ABAE) cell line and in Human Tumor cells lines is evaluated in three similar assays that measure growth inhibition. The assays are identified as follows:
(§3) PROTOCOLS 1, 2, and 3 are described in greater detail hereinbelow. In general, according to PROTOCOLS 1 and 2, the target ABAE and/or Human Tumor cells are exposed to the compounds of Formula I for 48 hours. PROTOCOL 3 exposes ABAE cells to the compounds for 4 days. A detailed description of the Protocols is as follows:
(§4) Antiproliferative Activity in Human Tumor Cell Lines
(§5) The antiproliferative activity of the compounds of Formula I of the present invention is evaluated in a panel comprised of human tumor cell lines. The human tumor cell lines are from
(§6) 2) Colon tumors: MIP, CACO2, and SW620.
(§7) All cell lines are maintained in log phase in RPMI 1640 media, supplemented with 5% fetal calf serum, penicillin/streptomycin and 2 mM L-glutamine. Cultures are renewed after 20 passages with cells from a fresh stock of batch-frozen early passage cells. Cell lines are routinely checked for mycoplasma contamination (Genprobe). In a laminar flow hood, cells (1-5×10^4) are plated into 96-well microtiter plates in a volume of 0.1 ml/well with a bulk microtiter dispenser (Denley). […] At this concentration, dimethylsulfoxide has no effect on cell growth. Compounds are added using a Tomtec dispenser which simultaneously dispenses from one 96-well plate, containing the drug dilutions, to the plates containing the cells. After two days of continuous drug exposure, 50% cold trichloroacetic acid (TCA) is added to 10% final concentration to fix the cells, and after 60 minutes at 4° C., the TCA is aspirated and the plates are washed 5 times with deionized water using a microtiter plate washer. The number of cells on the plate are quantitated using a protein dye-binding assay (Monks et al., 1991). A 0.4% solution of the dye, sulforhodamine B, in […] is added to the plates, and the plates are washed 5 times with 1% glacial acetic acid using the automatic plate washed. The bound stain is solubilized with 0.1 ml of 10 mMTris base. The optical densities are read from an automatic spectrophotometric plate reader (Dynatech) directly to a main frame computer (VAX 8600).
(§8) Positive controls, that include standard chemotherapeutic drugs (i.e., adriamycin, cisplatin, etc.), are included in every experiment.
(§9) Background optical density measurements (complete media--cells, and complete media+drug-cells) are automatically subtracted from the appropriate control and test wells. Mean values and standard errors are determined from duplicate wells. A measure is also made of the optical density at time when the drugs are added. The number of cells after treatment (P), as % of control, is calculated for every concentration of drug, as follows: [formula] wherein: T is optical density measurement for treated cells after 48 hours;
(§10) C is optical density measurement for untreated cells after 48 hours;
(§11) Co is optical density measurement for cells at the time of drug addition.
(§12) IC50 of Growth inhibition is calculated from the sets of P values using the RS-1 data package (BBN Software).
(§13) Antiproliferative Activity in Human Tumor and Adult Bovine Aortic Endothelial Cell Lines (ABAE)
(§14) The antiproliferative activity of the compounds of Formula I is evaluated in a panel comprised of human tumor cell lines as listed in Protocol 1 as well as an adult bovine aortic endothelial cell line (ABAE). This assay is a modification of PROTOCOL 1. The modifications include:
(§15) 1) each concentration for each compound is tested in a single well;
(§16) 2) compounds are tested at 20, 4, 0.8, 0.16 microgram/ml and additionally in some experiments at 100 and 0.32 microgram/ml;
(§17) 3) samples are pipetted into a 96-well plate for each of the cell lines by a Beckman Biomek 1000 SL robot; […]

CACO2 = assay: as above
Protocol: as §2, §3, §4, §5, §6, §7, §8, §9, §10, §11, §12, §13, §14, §15, §16, §17

SW620 = assay: as above; conditions: SW-620, colon tumor cell line SW620, 48 hours, read-out: IC50
Protocol: as §2, §3, §4, §5, §6, §7, §8, §9, §10, §11, §12, §13, §14, §15, §16, §17

Human Tumor cell lines = assay: Antiproliferative activity in panel of human tumor cell lines (average / panel as a whole), PROTOCOL 1 and PROTOCOL 2; conditions: for IC50: Homo sapiens, average over the tumor cell lines tested
Protocol: as §2, §3, §4, §5, §6, §7, §8, §9, §10, §11, §12, §13, §14, §15, §16, §17

[1] = Caco-2, colon tumor cell line CACO2, 48 hours, read-out: IC50

CN(C)[C@@H]1C(O)=C(C(N)=O)C(=O)[C@@]2(O)C(O)=C3C(=O)c4c(O)ccc(Br)c4CC3CC12 (stereo partly drawn) [Example 8, [4S-(4α,12aα)]-7-Bromo-4-(dimethylamino)-1,4,4a,5,5a,-6,11,12a-octahydro-3,10,12,12a-tetrahydroxy-1,11-dioxo-2-naphthacenecarboxamide sulfate]
IC50 (A2780S): 0.6 µg/mL
IC50 (HTB 161): 0.6 µg/mL
IC50 (MIP): 2 µg/mL
IC50 (CACO2; [1]): 2.4 µg/mL
IC50 (SW620): 1.4 µg/mL
inhibition of cell growth at the highest concentrations (Human Tumor cell lines; FIG. 2, 6 human tumor cell lines, in words): no 100% inhibition of cell growth
IC50 (Human Tumor cell lines): 1.3 µg/mL
dead floating cells (Human Tumor cell lines; even at the highest concentration): not observed

CN(C)[C@@H]1C(O)=C(C(N)=O)C(=O)[C@@]2(O)C(O)=C3C(=O)c4c(O)ccc(I)c4CC3CC12 (stereo partly drawn) [Example 10, [4S-(4α,12aα)]-4-(Dimethylamino)-4,4,4a,5,5a,6,11,12a-octahydro-3,10,12,12a-tetrahydroxy-7-iodo-1,11-dioxo-2-naphthacenecarboxamide]
IC50 (A2780S): 0.7 µg/mL (≈ 1.3 µM)
IC50 (HTB 161): 0.7 µg/mL (≈ 1.3 µM)
IC50 (MIP): 0.8 µg/mL (≈ 1.48 µM)
IC50 (CACO2; Caco-2, 48 h): 2.8 µg/mL (≈ 5.18 µM)
IC50 (SW620): 1.2 µg/mL (≈ 2.22 µM)
IC50 (Human Tumor cell lines): 1.7 µg/mL (≈ 3.15 µM)

CN(C)c1ccc(O)c2c1C[C@H]1C[C@H]3[C@H](N(C)C)C(O)=C(C(N)=O)C(=O)[C@@]3(O)C(O)=C1C2=O [Minocycline, reference compound]
IC50 (MIP): 6.1 µg/mL (≈ 13.3 µM)
IC50 (CACO2; [1]): 9 µg/mL (≈ 19.7 µM)
